# Measurements reported in PubChem BioAssay (NCI).
#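 GI50 marks 50% less growth. At the TGI there is no net growth.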
# Experiments:
# Experiment in all cases: NCI tumour cell line growth inhibition, 384-well format
# [1] = system: UO-31 renal
# [2] = system: RXF 393 renal
# [3] = system: PC-3 prostate
# [4] = system: A549 NSCLC
# [5] = system: SNB-19 CNS
# [6] = system: MDA-MB-468 breast
# [7] = system: A498 renal
# [8] = system: NCI-H322M lung
# [9] = system: SW-620 colon
# [10] = system: OVCAR-5 ovarian
# [11] = system: HCT-15 colon
# [12] = system: SK-MEL-2 melanoma
# [13] = system: NCI-H522 lung
# [14] = system: 786-0 renal
# [15] = system: MDA-MB-435 melanoma
# [16] = system: MALME-3M melanoma
# [17] = system: SK-MEL-28 melanoma
# [18] = system: U251 glioblastoma
# [19] = system: MOLT-4 leukemia
# [20] = system: HT29 colon
# [21] = system: MDA-MB-231 breast
# [22] = system: OVCAR-3 ovarian
# [23] = system: M14 melanoma
# [24] = system: MCF7 breast
# [25] = system: TK-10 renal
# [26] = system: HOP-92 NSCLC
# [27] = system: K-562 leukemia
# [28] = system: SK-OV-3 ovarian
# [29] = system: OVCAR-4 ovarian
# [30] = system: ACHN renal
# [31] = system: HL-60(TB) leukemia
# [32] = system: SNB-75 CNS
# [33] = system: IGROV1 ovarian
# [34] = system: SR leukemia
# [35] = system: HCT-116 colon
# [36] = system: UACC-257 melanoma
# [37] = system: T-47D breast
# [38] = system: OVCAR-8 ovarian
# [39] = system: HS 578T breast
# [40] = system: SF-539 CNS
# [41] = system: EKVX NSCLC
# [42] = system: HOP-62 NSCLC
# [43] = system: NCI-H226 lung
# [44] = system: SF-295 CNS
# [45] = system: UACC-62 melanoma
# [46] = system: DU-145 prostate
# [47] = system: CAKI-1 renal
# [48] = system: COLO 205 colon
# [49] = system: KM12 colon
# [50] = system: BT-549 breast
# [51] = system: SF-268 CNS
# [52] = system: SK-MEL-5 melanoma
# [53] = system: NCI-H23 lung
# [54] = system: NCI-H460 NSCLC
# [55] = system: SN12C renal
compound,measurement,setting,value
Cc1cc(C)c(CNC(=O)c2cc(Cl)c3c(c2C)O[C@@](C)(C2CCC(N(C)C)CC2)O3)c(=O)[nH]1 (stereo not given in full),GI50,[1],63.1 µM
same,TGI,[1],> 100 µM
same,GI50,[2],7.55 µM
same,TGI,[2],21.2 µM
same,GI50,[3],56.3 µM
same,TGI,[3],> 100 µM
same,GI50,[4],76.2 µM
same,TGI,[4],> 100 µM
same,GI50,[5],> 100 µM
same,TGI,[5],> 100 µM
same,GI50,[6],24.9 µM
same,TGI,[6],73.2 µM
same,GI50,[7],20.4 µM
same,TGI,[7],37.1 µM
same,GI50,[8],> 100 µM
same,TGI,[8],> 100 µM
same,GI50,[9],> 100 µM
same,TGI,[9],> 100 µM
same,GI50,[10],> 100 µM
same,TGI,[10],> 100 µM
same,GI50,[11],71.1 µM
same,TGI,[11],> 100 µM
same,GI50,[12],17.4 µM
same,TGI,[12],45.6 µM
same,GI50,[13],> 100 µM
same,TGI,[13],> 100 µM
same,GI50,[14],16.1 µM
same,TGI,[14],32 µM
same,GI50,[15],73.4 µM
same,TGI,[15],> 100 µM
same,GI50,[16],25.1 µM
same,TGI,[16],56.9 µM
same,GI50,[17],83 µM
same,TGI,[17],> 100 µM
same,GI50,[18],72.9 µM
same,TGI,[18],> 100 µM
same,GI50,[19],29.2 µM
same,TGI,[19],77.5 µM
same,GI50,[20],21.3 µM
same,TGI,[20],48.7 µM
same,GI50,[21],> 100 µM
same,TGI,[21],> 100 µM
same,GI50,[22],72 µM
same,TGI,[22],> 100 µM
same,GI50,[23],38.2 µM
same,TGI,[23],> 100 µM
same,GI50,[24],44.9 µM
same,TGI,[24],> 100 µM
same,GI50,[25],33.4 µM
same,TGI,[25],> 100 µM
same,GI50,[26],40 µM
same,TGI,[26],> 100 µM
same,GI50,[27],14.9 µM
same,TGI,[27],30.5 µM
same,GI50,[28],> 100 µM
same,TGI,[28],> 100 µM
same,GI50,[29],> 100 µM
same,TGI,[29],> 100 µM
same,GI50,[30],> 100 µM
same,TGI,[30],> 100 µM
same,GI50,[31],15.4 µM
same,TGI,[31],37.6 µM
same,GI50,[32],18.6 µM
same,TGI,[32],60.3 µM
same,GI50,[33],51 µM
same,TGI,[33],> 100 µM
same,GI50,[34],19.8 µM
same,TGI,[34],34.1 µM
same,GI50,[35],38.6 µM
same,TGI,[35],> 100 µM
same,GI50,[36],22.7 µM
same,TGI,[36],51.8 µM
same,GI50,[37],> 100 µM
same,TGI,[37],> 100 µM
same,GI50,[38],> 100 µM
same,TGI,[38],> 100 µM
same,GI50,[39],13.8 µM
same,TGI,[39],32.7 µM
same,GI50,[40],35 µM
same,TGI,[40],> 100 µM
same,GI50,[41],48.9 µM
same,TGI,[41],> 100 µM
same,GI50,[42],> 100 µM
same,TGI,[42],> 100 µM
same,GI50,[43],44.3 µM
same,TGI,[43],> 100 µM
same,GI50,[44],35.1 µM
same,TGI,[44],> 100 µM
same,GI50,[45],32.6 µM
same,TGI,[45],> 100 µM
same,GI50,[46],81.1 µM
same,TGI,[46],> 100 µM
same,GI50,[47],19.1 µM
same,TGI,[47],39.2 µM
same,GI50,[48],> 100 µM
same,TGI,[48],> 100 µM
same,GI50,[49],59.4 µM
same,TGI,[49],> 100 µM
same,GI50,[50],19 µM
same,TGI,[50],45 µM
same,GI50,[51],45.4 µM
same,TGI,[51],> 100 µM
same,GI50,[52],17.6 µM
same,TGI,[52],37.2 µM
same,GI50,[53],46.8 µM
same,TGI,[53],> 100 µM
same,GI50,[54],37.2 µM
same,TGI,[54],> 100 µM
same,GI50,[55],76.6 µM
same,TGI,[55],> 100 µM
